Experimental data as given in US9156801B2, “2-substituted oleanolic acid derivative, method preparing for same, and application thereof” (HANGZHOU BENSHENG PHARMACEUTICAL CO., LTD., priority 2011, dated 2015).
Converted amounts (≈) assume the structure as drawn.

How the values were obtained:
RPMI8226 cell line = assay: multiple myeloma cell growth inhibition, MTT; format: cell-based; conditions: Homo sapiens, RPMI-8226; for inhibition at 16 µg/mL: RPMI8226, 16 μg/mL compound, 72 h, read-out: IR (cell proliferation inhibition rate); for IC50: RPMI8226, 72 h
Procedure, shortened: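 RPMI8226 cells (6000 per well) in RPMI 1640 with 10% FBS were exposed to several concentrations of compound for 72 h at 37° C and 5% CO2. Viable cells were quantified by MTT, with inhibition set to 0% in untreated controls.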

Hep G2 cell line = assay: solid tumor cell growth inhibition, MTT; format: cell-based, human; conditions: Homo sapiens; for inhibition at 16 µg/mL: HepG2, 72 h, Hep G2, 16 μg/mL compound, 72 h, read-out: IR (cell proliferation inhibition rate); for IC50: HepG2, Hep G2, 72 h
Procedure, shortened: (§1)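 Compound-treated cultures (72 h, 37° C, 5% CO2, DMEM high glucose with 10% FBS) were compared with untreated wells assigned 0% inhibition, using MTT to gauge relative living cells; seeding was 4000 cells per well, 24 h before treatment.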

A549 cell line = assay: solid tumor cell growth inhibition, MTT; format: cell-based; conditions: Homo sapiens; for IC50: A549, 72 h; for inhibition at 16 µg/mL: A549, 16 μg/mL compound, 72 h, read-out: IR (cell proliferation inhibition rate)
Procedure, shortened: as §1

PANC-1 cell line = assay: solid tumor cell growth inhibition, MTT; format: cell-based; conditions: Homo sapiens; for IC50: PANC-1, 72 h; for inhibition at 16 µg/mL: PANC-1, 16 μg/mL compound, 72 h, read-out: IR (cell proliferation inhibition rate)
Procedure, shortened: as §1

PC-3 cell line = assay: solid tumor cell growth inhibition, MTT; format: cell-based; conditions: Homo sapiens; for IC50: PC-3, 72 h; for inhibition at 16 µg/mL: PC-3, 16 μg/mL compound, 72 h, read-out: IR (cell proliferation inhibition rate)
Procedure, shortened: as §1

Becap37 cell line = assay: solid tumor cell growth inhibition, MTT; format: cell-based; conditions: Homo sapiens; for inhibition at 16 µg/mL: Becap37, 16 μg/mL compound, 72 h, read-out: IR (cell proliferation inhibition rate); for IC50: Becap37, 72 h
Procedure, shortened: as §1

MG-63 cell line = assay: solid tumor cell growth inhibition, MTT; format: cell-based; conditions: Homo sapiens; for IC50: MG-63, 72 h; for inhibition at 16 µg/mL: MG-63, 16 μg/mL compound, 72 h, read-out: IR (cell proliferation inhibition rate)
Procedure, shortened: as §1

Hela cell line = assay: solid tumor cell growth inhibition, MTT; format: cell-based; conditions: Homo sapiens, 72 h; for IC50: HeLa; for inhibition at 16 µg/mL: Hela, 16 μg/mL compound, read-out: IR (cell proliferation inhibition rate)
Procedure, shortened: as §1

SK-OV-3 cell line = assay: solid tumor cell growth inhibition, MTT; format: cell-based; conditions: Homo sapiens; for IC50: SK-OV-3, 72 h; for inhibition at 16 µg/mL: SK-OV-3, 16 μg/mL compound, 72 h, read-out: IR (cell proliferation inhibition rate)
Procedure, shortened: as §1

RKO cell line = assay: solid tumor cell growth inhibition, MTT; format: cell-based; conditions: Homo sapiens, 72 h; for inhibition at 16 µg/mL: 16 μg/mL compound, read-out: IR (cell proliferation inhibition rate)
Procedure, shortened: as §1

CaES-17 cell line = assay: solid tumor cell growth inhibition, MTT; format: cell-based; conditions: Homo sapiens, CaEs17; for inhibition at 16 µg/mL: CaES-17, 16 μg/mL compound, 72 h, read-out: IR (cell proliferation inhibition rate); for IC50: CaES-17, 72 h
Procedure, shortened: as §1

U87 MG cell line = assay: solid tumor cell growth inhibition, MTT; format: cell-based; conditions: Homo sapiens, U-87 MG, 72 h; for inhibition at 16 µg/mL: 16 μg/mL compound, read-out: IR (cell proliferation inhibition rate)
Procedure, shortened: as §1

Hep-2 cell line = assay: solid tumor cell growth inhibition, MTT; format: cell-based; conditions: Homo sapiens; for IC50: HEp-2, 72 h; for inhibition at 16 µg/mL: Hep-2, 16 μg/mL compound, 72 h, read-out: IR (cell proliferation inhibition rate)
Procedure, shortened: as §1

MGC 803 cell line = assay: solid tumor cell growth inhibition, MTT; format: cell-based; conditions: Homo sapiens; for inhibition at 16 µg/mL: MGC 803, 16 μg/mL compound, 72 h, read-out: IR (cell proliferation inhibition rate); for IC50: MGC 803, 72 h
Procedure, shortened: as §1

CNE cell line = assay: solid tumor cell growth inhibition, MTT; format: cell-based; conditions: Homo sapiens, 72 h; for inhibition at 16 µg/mL: 16 μg/mL compound, read-out: IR (cell proliferation inhibition rate)
Procedure, shortened: as §1

NB4 cell line = assay: leukemia cell growth inhibition, MTT; format: cell-based; conditions: Homo sapiens, NB-4; for inhibition at 16 µg/mL: NB4, 16 μg/mL compound, 72 h, read-out: IR (cell proliferation inhibition rate); for IC50: NB4, 72 h
Procedure, shortened: (§2)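 6000 cells per well in RPMI 1640 with 10% FBS were exposed to graded concentrations of the oleanolic acid derivatives for 72 hours at 37° C under 5% CO2. Viable cells were quantified by MTT, with untreated cells defining 0% inhibition.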

K562/adr cell line = assay: leukemia cell growth inhibition, MTT; format: cell-based; conditions: Homo sapiens, 72 h; for IC50: K562/Adr; for inhibition at 16 µg/mL: K562/adr, 16 μg/mL compound, read-out: IR (cell proliferation inhibition rate)
Procedure, shortened: as §2

Jurkat cell line = assay: leukemia cell growth inhibition, MTT; format: cell-based; conditions: Homo sapiens, 72 h; for inhibition at 16 µg/mL: 16 μg/mL compound, read-out: IR (cell proliferation inhibition rate)
Procedure, shortened: as §2

H9 cell line = assay: leukemia cell growth inhibition, MTT; format: cell-based; conditions: Homo sapiens; for IC50: H9, 72 h; for inhibition at 16 µg/mL: H9, 16 μg/mL compound, 72 h, read-out: IR (cell proliferation inhibition rate)
Procedure, shortened: as §2

Kasumi-1 cell line = assay: leukemia cell growth inhibition, MTT; format: cell-based; conditions: Homo sapiens; for inhibition at 16 µg/mL: Kasumi-1, 16 μg/mL compound, 72 h, read-out: IR (cell proliferation inhibition rate); for IC50: Kasumi-1, 72 h
Procedure, shortened: as §2

## COC(=O)[C@]12CCC(C)(C)C[C@H]1C1=CC[C@@H]3[C@@]4(C)CC(C(=O)NCC5CC5)C(=O)C(C)(C)[C@@H]4CC[C@@]3(C)[C@]1(C)CC2 (some centres unmarked) [BS-OA-048]
RPMI8226 cell line
  inhibition at 16 µg/mL: 4.9%
  IC50: > 16 µg/mL
Hep G2 cell line
  inhibition at 16 µg/mL: 7.4%
  IC50: > 16 µg/mL
A549 cell line
  IC50: > 16 µg/mL
  inhibition at 16 µg/mL: -3.8%
PANC-1 cell line
  IC50: > 16 µg/mL
  inhibition at 16 µg/mL: -17.8%
PC-3 cell line
  IC50: > 16 µg/mL
  inhibition at 16 µg/mL: 17.7%
Becap37 cell line
  inhibition at 16 µg/mL: -8.4%
  IC50: > 16 µg/mL
MG-63 cell line
  IC50: > 16 µg/mL
  inhibition at 16 µg/mL: -20.3%
Hela cell line
  IC50: > 16 µg/mL
  inhibition at 16 µg/mL: 2.4%
SK-OV-3 cell line
  IC50: > 16 µg/mL
  inhibition at 16 µg/mL: 22%
RKO cell line
  inhibition at 16 µg/mL: -33.4%
  IC50: > 16 µg/mL
CaES-17 cell line
  inhibition at 16 µg/mL: -18.6%
  IC50: > 16 µg/mL
U87 MG cell line
  inhibition at 16 µg/mL: 5.6%
  IC50: > 16 µg/mL
Hep-2 cell line
  IC50: > 16 µg/mL
  inhibition at 16 µg/mL: -5.3%
MGC 803 cell line
  inhibition at 16 µg/mL: -5.9%
  IC50: > 16 µg/mL
CNE cell line
  inhibition at 16 µg/mL: 21.9%
  IC50: > 16 µg/mL
NB4 cell line
  inhibition at 16 µg/mL: 11%
  IC50: > 16 µg/mL
K562/adr cell line
  IC50: > 16 µg/mL
  inhibition at 16 µg/mL: 21.4%
Jurkat cell line
  inhibition at 16 µg/mL: -21.2%
  IC50: > 16 µg/mL
H9 cell line
  IC50: > 16 µg/mL
  inhibition at 16 µg/mL: 28.9%
Kasumi-1 cell line
  inhibition at 16 µg/mL: 0.2%
  IC50: > 16 µg/mL

## COCCCNC(=O)C1C[C@]2(C)[C@H]3CC=C4[C@@H]5CC(C)(C)CC[C@]5(C(=O)OC)CC[C@@]4(C)[C@]3(C)CC[C@H]2C(C)(C)C1=O (some centres unmarked) [BS-OA-052]
RPMI8226 cell line
  inhibition at 16 µg/mL: 25.2%
  IC50: > 16 µg/mL
Hep G2 cell line
  inhibition at 16 µg/mL: 10%
  IC50: > 16 µg/mL
A549 cell line
  IC50: > 16 µg/mL
  inhibition at 16 µg/mL: 3.1%
PANC-1 cell line
  IC50: > 16 µg/mL
  inhibition at 16 µg/mL: 8.4%
PC-3 cell line
  IC50: > 16 µg/mL
  inhibition at 16 µg/mL: 25.4%
Becap37 cell line
  inhibition at 16 µg/mL: -12%
  IC50: > 16 µg/mL
MG-63 cell line
  IC50: > 16 µg/mL
  inhibition at 16 µg/mL: -33.5%
Hela cell line
  IC50: > 16 µg/mL
  inhibition at 16 µg/mL: 25.6%
SK-OV-3 cell line
  IC50: > 16 µg/mL
  inhibition at 16 µg/mL: 29.5%
RKO cell line
  inhibition at 16 µg/mL: -48.6%
  IC50: > 16 µg/mL
CaES-17 cell line
  inhibition at 16 µg/mL: -8%
  IC50: > 16 µg/mL
U87 MG cell line
  inhibition at 16 µg/mL: 10.9%
  IC50: > 16 µg/mL
Hep-2 cell line
  IC50: > 16 µg/mL
  inhibition at 16 µg/mL: -11.3%
MGC 803 cell line
  inhibition at 16 µg/mL: -12.7%
  IC50: > 16 µg/mL
CNE cell line
  inhibition at 16 µg/mL: 9.9%
  IC50: > 16 µg/mL
NB4 cell line
  inhibition at 16 µg/mL: 46.7%
  IC50: 16 µg/mL (≈ 27.4 µM)
K562/adr cell line
  IC50: 12.3 µg/mL (≈ 21 µM)
  inhibition at 16 µg/mL: 64%
Jurkat cell line
  inhibition at 16 µg/mL: -5%
  IC50: > 16 µg/mL
H9 cell line
  IC50: > 16 µg/mL
  inhibition at 16 µg/mL: 38%
Kasumi-1 cell line
  inhibition at 16 µg/mL: 19%
  IC50: > 16 µg/mL
